As usually defined, the EC50 is the concentration at which the effect is half-maximal. Low values mean higher potency in that assay, high ones lower potency in that assay.

Structures are written as SMILES.

Common to all, as to format: cell-based, human
In experiment [1] the test system is SMN2 splicing. Kind of experiment: qPCR of SMN transcripts in motor neurons derived from SMA patient iPSCs (GM24468). As to conditions: iPSC-derived motor neurons (GM24468), 24 h. The method, then:
GM24468 cells were differentiated to motor neurons (MNs) via a motor neuron progenitor (MNP) as previously reported. Briefly described, GM24468 were treated with a chemically defined neural medium, including DMEM/F12, Neurobasal medium at 1:1, 0.5% N2, 0.1% B27, 0.1 mM ascorbic acid (Sigma Aldrich, USA), 1 × GlutaMax, and 1 × penicillin/streptomycin. 3 µM CHIR99021 (Wako), 2 µM DMH1 (Sigma Aldrich) and 2 µM SB431542 (Wako) were added in the medium. The culture medium was changed every other day. GM24468 maintained under this condition for 6 days were induced into neuroepithelial progenitors (NEPs). NEPs were then dissociated and split with dispase (Stemcell technologies) and neural medium containing 0.1 µM RA (Sigma Aldrich), 0.5 µM Purmorphamine (Pur) (Merck, USA), 1 µM CHIR99021, 2 µM DMH1 and 2 µM SB431542. The medium was changed every other day. NEPs maintained under this condition for 6 days differentiated into OLIG2^+ MNPs. The OLIG2^+ MNPs were expanded with the same medium containing 1 µM CHIR99021, 2 µM DMH1, 2 µM SB431542, 0.1 µM RA, and 0.5 µM Pur, and split once a week. To induce MNs differentiation, OLIG2^+ MNPs cultured in suspension in the above neural medium with 0.5 µM RA and 0.1 µM Pur. The medium was changed every other day. OLIG2^+ MNPs under this condition for 6 days differentiated into MNX1^+ MNs. […]
(In general: In qPCR the cycle at which signal appears reflects the starting amount.)

Experiment [2] relates to FOXM1a. Kind of experiment: qPCR of FOXM1a variant in GM03813 fibroblasts. As to conditions: 24 h, 200% total target mRNA increase, 95% CI in brackets. Here is the method:
(§1) GM03813 fibroblasts, GM24468-derived MNs, NRK-49F, MDCK, CV-1, or NCMDF cells were plated at a density of 0.5 or 1.5 × 10^4, 4 × 10^4, 5 × 10^3, 5 × 10^3, 8 × 10^3, or 6 × 10^3 cells/well on 96-well plates, respectively. After approximately 6 h, the medium was added with the same volume of culture medium containing each compound at the concentration of 0.06, 0.2, 0.6, 0.2, and 6 µM. The final concentration of DMSO was adjusted to 0.1% in culture condition.
(§2) All cells were treated with above compounds for 24 h and washed once with Dulbecco’s Phosphate-Buffered Saline without Ca and Mg [D-PBS (–)] (Wako or Nakarai Tesque). In case of using GM03813 or GM24468-derived MNs, cell lysis and reverse transcription were carried out using SuperPrep Cell Lysis & RT Kit for qPCR in accordance with manufacturer’s recommendations (Toyobo, Japan). qPCR was performed using THUNDERBIRD Probe qPCR Mix (Toyobo). The final concentrations of primers and probes were adjusted to 0.4 µM and 0.15 µM, respectively (Supplementary Table 1). Cycle conditions were as follows; 95 °C for 1 min; followed by 40 cycles of denaturation at 95 °C for 15 s; annealing and elongation at 60 °C for 1 min in the ViiA7 RT-PCR system (Thermo Fisher Scientific). The copy numbers of each target were normalized to those of GAPDH.

The test system of experiment [3] is HTT mRNA. Kind of experiment: qPCR of HTT transcripts in GM03813 fibroblasts. As to conditions: for Selectivity HTT /FL-SMN2: EC50 of HTT divided by EC1.5× of FL-SMN2; for EC50: Homo sapiens, Fibroblast, GM03813 fibroblasts, 24 h, 50% total HTT mRNA reduction, 95% CI in brackets. The method, then:
as §1, §2
In order to elucidate splicing pattern of cryptic GALC and HTT transcripts, GM03813 cells were seeded at 5 or 15 × 10^3 cells/well in 96-well plates and incubated with TEC-1 or SMN-C3 (0.03, 0.1, 0.3, 0.1, 1 or 3 µM) for 6 h under final concentration of 200 µg/ml CHX. For FOXM1, GM03813 fibroblasts were plated at 1.5 × 10^4 cells/well in 96-well plate and incubated with TEC-1, SMN-C3 or risdiplam (0.03, 0.1, 0.3 and 1 µM) for 24 h.
GM03813 fibroblasts and GM24468-derived MNs were seeded at 1.5 × 10^4 and 4 × 10^4 cells/well in 96-well plates and were treated with TEC-1 or SMN-C3 for 72 h at the concentration of 0.01, 0.03, 0.1, 0.3, 1, or 3 µM. After 72 h exposure of compound, GM24468 derived MNs and GM03813 fibroblasts were washed once with D-PBS (-), lysed with RIPA buffer (Wako) containing cOmplete (Sigma-Aldrich) and PhosSTOP (Sigma-Aldrich). The lysates were spun at 15,000 rpm for 15 min at 4 °C, and the supernatants were collected. The protein concentration was quantified with BCA kit (Wako). The lysates, adjusted to have the same protein amount, were mixed with NuPAGE LDS sample buffer containing DTT and heated at 95 °C for 5 min. Except for HTT detection, each sample (2 µg total protein/lane) was loaded Perfect NT Gel 7.5–15% gel (DRC, Japan) and run at 150 V for 60–70 min with Tris/glycine/SDS running buffer (BIO-RAD, USA). The proteins were transferred from the gel to Immobilon-P PVDF Membrane (Millipore, USA) with a transfer solution comprising 10% methanol and 1 × Novex Tris-glycine transfer buffer at 25 V for 180–240 min using Criterion blotter (BIO-RAD). In the case of HTT detection, each sample (2 µg total protein/lane) was loaded to Perfect NT Gel 7.5–15% gel and run at 150 V for 60–70 min with NuPAGE Tris–Acetate SDS Running Buffer. The proteins were transferred with a transfer solution comprising 10% methanol and 1 × Novex Tris-glycine transfer buffer at 25 V for 960 min using Criterion blotter. The membranes were blocked with Pierce Protein free T20 blocking reagent for 1 h and subsequently incubated with primary antibodies diluted with Can Get Signal Solution 1 (Toyobo) at room temperature for 1 h. Anti-SMN monoclonal antibody (MoAb)[15] […]

Experiment [4] concerns FOXM1b. Kind of experiment: qPCR of FOXM1b/c variant in GM03813 fibroblasts. As to conditions: for Selectivity FOXM1b /FL-SMN2: EC50 of FOXM1b divided by EC1.5× of FL-SMN2; for EC50: Homo sapiens, Fibroblast, GM03813 fibroblasts, 24 h, 50% total target mRNA reduction, 95% CI in brackets. The method, then:
as §1, §2

In experiment [5] the test system is GALC mRNA. Kind of experiment: qPCR of GALC transcripts in GM03813 fibroblasts. As to conditions: for Selectivity GALC /FL-SMN2: EC50 of GALC divided by EC1.5× of FL-SMN2; for EC50: Homo sapiens, Fibroblast, GM03813 fibroblasts, 24 h, 50% total GALC mRNA reduction, 95% CI in brackets. Here is the method:
as §1, §2

For the molecule `CCN1CCC(c2cc(C)c3nc(-c4cc5c(C)nc(C)cn5n4)cc(=O)n3c2)CC1` [SMN-C3, reference compound], the “SMN2 splicing in motor neurons” value in experiment [1] (similar effects to TEC-1) was “modulates SMN2 splicing”. Besides, the “EC3.0× FOXM1a” value in experiment [2] was 280.3 (211.4–377.7) nM. In addition, in experiment [3], the “Selectivity HTT /FL-SMN2” value is recorded as 4 and the EC50 worked out at 547 nM. In experiment [4], the “Selectivity FOXM1b /FL-SMN2” value is 8 and the EC50 was 945 nM. For the same molecule, in experiment [5], the “Selectivity GALC /FL-SMN2” value came to 4 and a half-maximal effect (EC50) was put at 459 nM.

Turning to `Cc1cn2nc(-c3nc4ccc(N5CCN(C)CC5)cc4c(=O)[nH]3)cc2c(C)n1` [TEC-1, 2-(4,6-dimethylpyrazolo[1,5-a]pyrazin-2-yl)-6-(4-methylpiperazin-1-yl)quinazolin-4(3H)-one], in experiment [1], the “concentration showing clear ability to modulate SMN2 splicing” value is on record as 30 nM. Also, the “EC3.0× FOXM1a” value in experiment [2] is 1096.8 (809.7–1552.2) nM. Further, in experiment [3], the “Selectivity HTT /FL-SMN2” value is recorded as > 61 and the EC50 is > 3000 nM. Besides, the “inclusion of the HTT cryptic exon or reduction of HTT at the mRNA and full-length protein levels” value in experiment [3] (GM03813 cells) is “did not substantially impact”. Also, in experiment [4], the “Selectivity FOXM1b /FL-SMN2” value is reported as > 61 and the EC50 was > 3000 nM. Further, in experiment [5], the “Selectivity GALC /FL-SMN2” value was > 61 and the EC50 was > 3000 nM.

Source of the values: paper PMC7562719, “Discovery of a CNS penetrant small molecule SMN2 splicing modulator with improved tolerability for spinal muscular atrophy” (Scientific Reports, 2020).
